Results reported in patent US20100256145A1, “USE OF KCNQ POTASSIUM CHANNEL OPENERS FOR REDUCING SYMPTOMS OF OR TREATING DISORDERS OR CONDITIONS WHEREIN THE DOPAMINERGIC SYSTEM IS DISRUPTED” (H. LUNDBECK A/S, priority 2007, published 2010).
Marks after values point to notes of the source that are not given here.

Tests used:
[1] = test system: social behaviours in the Mutual Resident Intruder rat test; assay: Mutual Resident Intruder rat test; settings: for % of time Agonistic behaviour: sum of defensive and aggressive behaviour
Procedure: (§1) Subjects. 5 week old male Wistar rats (Harlan, Germany) were used. The animals were housed in groups of four animals per cage and kept under a 12 h/12 h light dark rhythm (start of the dark phase at 2:00 p.m., CET), at 20° C. room temperature and 60% humidity. During the whole study, standard diet and tap water was provided ad libitum.
(§2) Experimental procedure. […] Therefore, half of the cage is the home territory of each animal. At test time, the wall is removed from the cage so that the animals can interact with each other for 15 minutes. Both animals are from the same test group. The cage is illuminated by dim red light. The test starts 1 hour after beginning of the dark phase. All animals are marked individually by means of black symbols on their back. Behaviour is registered by video. Each animal is tested once.
(§3) Analyses. In both the TE test and the MRI test, the portion of time (%) spent in non-social, friendly, defensive, aggressive or agonistic (sum of defensive and aggressive behaviour) behaviour was compared across the experimental groups against the relevant control group by means of Analysis of Variance (ANOVA) (one-factor).

baseline motility = assay: Baseline motility in mice (vehicle-pretreated, vehicle-challenged); type: in vivo, mouse; settings: s.c., Std. Dev. in brackets
Procedure: Subjects. Male NMRI mice (Charles River) weighing approx. 35 g are used. […] 12 mice are used pr experimental group.
Experimental procedure. All mice are pre-treated once daily for five days with either d-amphetamine sulphate (2.5 mg/kg s.c.) or saline (10 ml/kg). For the 17 days between the last day of pre-treatment and the test day, the animals are kept in their homecage receiving the care as described above. The experiment is performed under normal light conditions in an undisturbed room. The mice are treated with test substance or vehicle and placed individually in the test cages for 30 min. The mice are then challenged with D-amphetamine sulphate (1.25 mg/kg s.c.) or saline (5 ml/kg) and replaced in the test-cage and data acquisition is begun. 5×8 infrared light sources and photocells interspaced by 4 cm monitor the locomotor activity. The light beams cross the cage 1.8 cm above the bottom of the cage.
Administration of compounds.
Data analyses. […] Similarly an ED50 for inhibiting baseline motility is calculated by expressed the motility response in vehicle-pretreated, vehicle-challenged, drug-treated animals relative to the baseline motility response. A therapeutic index value is subsequently calculated by dividing the first ED50 by the second.

[2] = molecular target: T1, noradrenergic α1A receptor (UniProt P18130); assay: 3H-Prazosin binding assay, receptor expressed in baby hamster kidney cells; settings: read-out: Ki, affinity towards noradrenergic α1A receptors
T1 sequence (P18130 1-466): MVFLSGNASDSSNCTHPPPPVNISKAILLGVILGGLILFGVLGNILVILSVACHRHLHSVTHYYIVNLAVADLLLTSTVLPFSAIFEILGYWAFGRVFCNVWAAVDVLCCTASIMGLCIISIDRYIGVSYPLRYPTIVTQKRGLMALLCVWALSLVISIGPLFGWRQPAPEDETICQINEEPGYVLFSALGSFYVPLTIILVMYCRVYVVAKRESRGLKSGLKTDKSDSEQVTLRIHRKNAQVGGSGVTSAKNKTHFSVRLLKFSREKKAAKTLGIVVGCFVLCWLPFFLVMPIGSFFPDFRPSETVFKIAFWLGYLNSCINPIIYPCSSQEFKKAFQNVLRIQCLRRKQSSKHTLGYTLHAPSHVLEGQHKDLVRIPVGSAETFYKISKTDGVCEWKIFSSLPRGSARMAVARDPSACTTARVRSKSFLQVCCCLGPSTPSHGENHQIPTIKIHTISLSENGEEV

[3] = test system: extracellular DA levels in the nucleus accumbens; assay: Microdialysis: amphetamine-evoked DA levels in the nucleus accumbens of freely moving rats; type: in vivo, rat; settings: for Normalised DA level in the nucleus accumbens: compound 8.1 mg/kg s.c., D-amphetamine 0.5 mg/kg s.c. 30 min later
Procedure: Subjects. Male Sprague-Dawley rats (Charles River), initially weighing 275-300 g, are used.
Surgery. Animals are anaesthetized with hypnorm/dormicum (2 ml/kg s.c.) and intracerebral guide cannulas (CMA/12) are stereotaxically implanted, positioning the dialysis probe tip in the nucleus accumbens (co-ordinates: 1.7 mm anterior to bregma, −1.2 mm lateral to bregma, 8.0 mm ventral to the dura). Anchor screws and acrylic cement is applied for fixation of the guide cannula. The body temperature of the animals is maintained at 37° C. by means of a rectal probe and a heating plate. The rats are allowed to recover from surgery for 2 days, housed singly in cages.
Experimental procedure. On the day of the experiment, a microdialysis probe (CMA/12, 0.5 mm diameter, 2 mm length) is inserted through the guide cannula of the conscious animal. The probes are connected to a microinjection pump via a dual channel swivel which allowed the animals unrestricted movements. Perfusion of the microdialysis probe with filtered Ringer solution (145 mM NaCl, 3 mM KCl, 1 mM MgCl2, 1.2 mM CaCl2) is maintained for the duration of the experiment at a constant flow rate of 1 μL/min. After 180 min of stabilisation, the experiments are initiated. Dialysates are collected every 20 min. After the experiments the rats are sacrificed by decapitation, their brains removed, frozen and sliced for probe placement verification.
Administration of compounds. […] Thirty minutes later, D-amphetamine sulphate (0.5 mg/kg s.c.) is administered.
Analysis of dialysate. The concentration of DA in the dialysates is assessed by means of HPLC with electrochemical detection. The dialysate constituents are separated by reverse phase liquid chromatography (ODS 150×3 mm, […]). Mobile phase consists of 90 mM NaH2PO4, 50 mM sodium citrate, 367 mg/l sodium 1-octanesulfonic acid, 50 μM EDTA and 8% acetonitrile (pH 4.0) at a flow rate of 0.5 ml/min. Electrochemical detection of DA is accomplished using a coulometric detector; potential set at E1=−75 mV and E2=300 mV (guard cell at 350 mV) (Coulochem II, ESA). The dialysate levels of DA in the three dialyse samples preceding the administration of compound are averaged and used as baseline level of DA (100%)
Statistical analysis. The dialysate levels of DA in the three dialyse samples preceding the administration of compound are averaged and used as baseline level of DA (100%). Data are analysed using repeated measure analyses of variance followed by post hoc tests (Tukey test), when appropriate. *P<0.05 were considered significant.

[4] = test system: social behaviours in the rat Tetradic Encounter test; assay: Rat Tetradic Encounter test; settings: for % of time Agonistic behaviour: sum of defensive and aggressive behaviour
Procedure: as §1, §2, §3

[5] = 2 mg/kg s.c. 30 min before test
[6] = 10 mg/kg s.c. 30 min before test

## CCOC(=O)Nc1ccc(NCc2ccc(F)cc2)cc1N [Compound 1, reference compound]
[1]; [5]
  % of time Aggressive behaviour: 16.1 % of time
  % of time Defensive behaviour: 16.3 % of time
  % of time Friendly behaviour: 3.4 % of time
  % of time Non-social behaviour: 64.2 % of time
  % of time Agonistic behaviour: 32.4 % of time
[1]; [6]
  % of time Aggressive behaviour: 4.2*** % of time
  % of time Defensive behaviour: 3.6*** % of time
  % of time Friendly behaviour: 4.9* % of time
  % of time Non-social behaviour: 87.3*** % of time
  % of time Agonistic behaviour: 7.8*** % of time
Baseline motility
  Inhibition of baseline motility, ED50: 7.6 (1.3) mg/kg
[2]
  Ki: 2000 nM
[3]; Time 0 min (baseline sample)
  Normalised DA level in the nucleus accumbens: 96 ± 6 % of baseline
[3]; Time 20 min
  Normalised DA level in the nucleus accumbens: 160 ± 11 % of baseline
[3]; Time 40 min
  Normalised DA level in the nucleus accumbens: 241 ± 33 % of baseline
[3]; Time 60 min
  Normalised DA level in the nucleus accumbens: 221 ± 26* % of baseline
[3]; Time 80 min
  Normalised DA level in the nucleus accumbens: 217 ± 14* % of baseline
[3]; Time 100 min
  Normalised DA level in the nucleus accumbens: 173 ± 9 % of baseline
[3]; Time 120 min
  Normalised DA level in the nucleus accumbens: 139 ± 9 % of baseline
[3]; Time 140 min
  Normalised DA level in the nucleus accumbens: 120 ± 9 % of baseline
[3]; Time −20 min (baseline sample)
  Normalised DA level in the nucleus accumbens: 99 ± 6 % of baseline
[3]; Time −40 min (baseline sample)
  Normalised DA level in the nucleus accumbens: 105 ± 3 % of baseline
[3]; without amphetamine, data not shown
  Effect on the basal extracellular DA level in the nucleus accumbens: None of the latter three compounds significantly affects the basal extracellular DA level
[4]; [5]
  % of time Aggressive behaviour: 5.2 % of time
  % of time Defensive behaviour: 7.2 % of time
  % of time Friendly behaviour: 21.9 % of time
  % of time Non-social behaviour: 65.7 % of time
  % of time Agonistic behaviour: 12.4 % of time
[4]; [6]
  % of time Aggressive behaviour: 2.4 % of time
  % of time Defensive behaviour: 3.7* % of time
  % of time Friendly behaviour: 24.7 % of time
  % of time Non-social behaviour: 69.2 % of time
  % of time Agonistic behaviour: 6.1* % of time
